What was measured:
NF-κB activity = test: NF-κB luciferase reporter assay in MDA-MB-231 cells overexpressing Bcl-3; type: cell-based, human; details: for IC50: MDA-MB-231 overexpressing Bcl-3, 24 hrs then reporter 48 hrs, read-out: IC50 NF-κB activity
Procedure: For NF-κB luciferase assays, cells were seeded into clear bottom black 96-well plates (Corning Inc., Lowell, US) in antibiotic free culture media in appropriate density. After 24 hrs, cells were transfected with 10 ng of 3×κB luciferase plasmid and 10 ng of pcDNA3.1-Lacl plasmid per well. Empty pcDNA3.1 plasmid was also included to normalize the total weight of DNA transfected to 100 ng. For positive and negative controls respectively, 10 ng of pGL3control or pGL3basic were transfected in place of 3×KB luciferase plasmid. Transfection was carried out using Lipofectamine LTX reagents (Invitrogen, Paisley, UK).
After 48 hrs post-transfection with luciferase reporter plasmid, the media was aspirated and cells were lyzed using 50 μl/well of Glo-lysis buffer (Promega, Southampton, UK). The plate was left on a rocker for 20 min to facilitate complete cell lysis. Then, 20 μl of lysate from each well was removed and transferred into a new clear bottom black well plate for measuring LacZ activity as a transfection efficiency control and followed by addition of 20 ul/well of Beta-Glo substrate (Promega, Southampton, UK) and cultivation at room temperature for at least 20 min. Subsequently, 30 μl/well of Bright-Glo luciferase substrate (Promega, Southampton, UK) was added to the original plate and asses immediately for luminescence activity. The luminescence produced from either reaction was read using a Flurostar Optima plate reader (BMG tabtech, Bucks, UK).
The effect of Compound 1a on NF-κB activity was determined by NF-κB luciferase assay in MDA-MB-231 and HEK-293 cells overexpressing Bcl-3 and HEK-293 cells overexpressing p52. Cells were cultivated with Compound 1a over a range of molarities for 24 hrs before being transfected with NF-κB luciferase reporter plasmid for 48 hrs and analyzed for NF-κB activity.
The effect of selected analogues on NF-κB activity was determined by NF-KB luciferase assay in MDA-MB-231 cells. MDA-MB-231 Bcl-3 over-expressing cells were cultivated with compounds from series 1-3 at 1 μM concentration for 24 hrs before being transfected with NF-κB luciferase reporter plasmid for 48 hrs together with controls and analyzed for NF-κB activity.
Based on the results for the series of analogues, we have established dose response curve for selected analogues from series 1 (If), from series 2 (2a and 2c) and from series 3 (3a) over a range of molarities. MDA-MB-231 Bcl-3 WT cells were cultivated with selected compounds from series 1-3 over a range of molarities for 24 hrs before being transfected with NF-κB luciferase reporter plasmid for 48 hrs together with controls and analyzed for NF-κB activity (FIG. 7).

[1] = Cell Titre Blue viability assay, HEK-293; type: cell-based; details: human, HEK-293 cells, HEK-293, 10 μM, vs DMSO
From the text: In all assays, a DMSO control was always used.

[2] = Cell Titre Blue viability assay, MDA-MB-231; details: human, MDA-MB-231 cells
Procedure: (§1) The viability of cells at experimental endpoints for particular assays was determined using the Cell Titre Blue reagent (Promega, Southampton, UK). This reagent measures the cellular metabolic activity using resazurin as an indicator dye. Viable cells, therefore metabolically active, will reduce resazurin into highly fluorescent resofurin. The resulting fluorescence levels are measured and indicate cell viability.
(§2) Cells were plated at low confluency into 96 well plates in 100 μl of complete growth media in triplicates and were incubated at 37° C. in 5% CO2 for the desired test exposure period. For each 100 μl of media in 96 well plates, 20 μl Cell Titre Blue reagent was added followed by incubation for an hour at 37° C. in 5% CO2. Fluorescence was then measured by setting excitation/emission wavelengths to 560/590 nm on a Flurostar Optima plate reader (BMG tabtech, Bucks, UK).
(§3) Cell toxicity was evaluated using the Cell Titre Blue viability assay over a range of molarities for 24 hrs.
(§4) Selected compounds were dissolved in DMSO and diluted to a highest concentration of 10 μM (0.1% DMSO). In all assays, a DMSO control was always used. Selected compounds were tested for cell toxicity in HEK-293 and MDA-MB-231 cells before being used in cell-based assays. Cell toxicity was evaluated using the Cell Titre Blue viability assay over a range of molarities for 24 hrs

MDA-MB-231 cells = details: 10 µM
Procedure: as §1, §2, §3, §4

IC50 (NF-κB activity) [nM]	SMILES	viability at 24 h, 10 µM [1] [%]	viability at 24 h, 10 µM [2] [%]	also measured
989	O=C(Nc1ccccc1C(=O)NCCN1CCOCC1)c1ccc(F)cc1F [Compound 1q, 2,4-difluoro-N-(2-[(2-morpholin-4-ylethyl)carbamoyl]phenyl) benzamide]			
	COc1cccc(C(=O)Nc2ccccc2C(=O)NCCN2CCOCC2)c1 [Compound 1e, 2-[(3-methoxybenzoyl)amino]-N-(2-morpholin-4-ylethyl)benzamide]	> 70	> 70	
706	O=C(NCCN1CCOCC1)c1ccccc1NC(=O)c1c(F)cccc1F [Compound 1p, 2,6-difluoro-N-(2-[(2-morpholin-4-ylethyl)carbamoyl]phenyl) benzamide]			
	O=C(Nc1ccccc1C(=O)NCCN1CCOCC1)c1ccc([N+](=O)[O-])cc1 [Compound 1i, 2-[(4-nitrobenzoyl)amino]-N-(2-morpholin-4-ylethyl) benzamide]			cell viability (MDA-MB-231 cells): above 70%
238	O=C(Nc1ccccc1C(=O)NCCN1CCOCC1)c1cc(F)cc(F)c1 [Compound 1o, 3,5-difluoro-N-(2-[(2-morpholin-4-ylethyl)carbamoyl]phenyl) benzamide]			
	O=C(Nc1ccc(I)cc1C(=O)NCCN1CCOCC1)c1ccccc1F [Compound 3c, 2-[(2-fluorobenzoyl)amino]-5-iodo-N-(2-morpholin-4-ylethyl)benzamide]			effect on NF-κB activity (NF-κB activity; 1 μM, 24 hrs, MDA-MB-231 Bcl-3 over-expressing cells, vs DMSO control / Compound 1a): significant decrease in NF-κB activity
	O=C(Nc1ccccc1C(=O)NCCN1CCOCC1)c1ccc(F)cc1 [Compound 1c, 2-[(4-fluorobenzoyl)amino]-N-(2-morpholin-4-ylethyl)benzamide]	> 70	> 70	
	O=C(NCCN1CCOCC1)c1ccccc1NC(=O)c1ccccc1[N+](=O)[O-] [Compound 1g, 2-[(2-nitrobenzoyl)amino]-N-(2-morpholin-4-ylethyl)benzamide]	> 70	> 70	
